Measured values reported in patent publication US20140187430A1, “Compositions and Methods for Identifying Autism Spectrum Disorders” (George Washington University, priority 2010, published 2014).
Entries after “also recorded” stand apart in the source; their conditions may differ.

What was measured:
Assay type in all cases: cell-based, human
[1] = tested on: upstream CpG island region of RORA; test: Methylation-specific PCR (MSP) of upstream CpG island region of RORA in LCL; conditions: LCL of autistic individuals; 5 μM, 48 hours
Procedure: (§1) LCL, which were obtained from the Autism Genetic Research Exchange (AGRE; Los Angeles, Calif.) were derived from lymphocytes of autistic and normal siblings and cultured as previously described (Hu et al. (2006) BMC Genomics 7, 118). Demethylating treatments were carried out by incubating cells in culture with 5 μM 5-Aza-2-deoxycytidine (Fluka, St. Louis, Mo.) or vehicle control, DMSO (FisherBioTech, Pittsburgh, Pa.) for 48 hours before harvesting cells.
Two ug of genomic DNA isolated from LCL were treated with sodium bisulfite using the Active Motif MethylDetector kit (Carlsbad, Calif.) according to the manufacturer's specifications. Successful bisulfite treatment and conversion was verified using positive control PCR primers for the p16 (CDKN2A) locus provided in the MethylDetector kit.
For methylation-specific PCR (MSP), 2 sets of primers spanning a region approximately 300 bp upstream of the first exon of RORA (UHNhscpg0014103; chr15:59309160-59309428) were designed according to assumed differences in methylation status (i.e., fully methylated or fully unmethylated). These primers were previously successful in identifying methylation-specific silencing of RORA in several gastric cancer cell lines (Yamashita et al. (2006) Cancer Science 97, 64-71). Bisulfite-modified genomic DNA was used as a template for PCR and PCR products were resolved by agarose gel electrophoresis.

RORA = test: qRT-PCR of RORA transcript in LCL after 5-Aza-2-deoxycytidine treatment; conditions: 5 μM, 48 hours
Procedure: as §1
(§2) Genomic DNA was isolated using the Qiagen DNeasy™ Blood and Tissue Kit (Valencia, Calif.) and used for bisulfite modification for methylation analyses. Total RNA was isolated using TRIzol reagent (Invitrogen, Carlsbad, Calif.) according to the manufacturer's protocol and used for gene expression analyses by quantitative RT-PCR. […]
(§3) Two candidate genes, BCL-2 and RORA, were chosen for quantitative real-time (RT)-PCR analysis to examine the correlation between expression of mRNA transcript and methylation status as predicted by microarray analysis, as well as to examine the effect of 5-Aza-2-deoxycytidine treatment on transcript levels. […] The qPCR reactions (in triplicate) were analyzed on an ABI Prism 7300 Sequence Detection System and transcript levels of BCL-2 and RORA were quantified and normalized to standard curves obtained using universal 18S rRNA primers.

BCL-2 = test: qRT-PCR of BCL-2 transcript in LCL after 5-Aza-2-deoxycytidine treatment; conditions: 5 μM, 48 hours
Procedure: as §1, §2, §3

[2] = LCL from the "mild" undiagnosed co-twins
[3] = LCL of autistic individuals, vs DMSO vehicle

With Nc1ncn([C@H]2C[C@H](O)[C@@H](CO)O2)c(=O)n1 [5-Aza-2-deoxycytidine] the “methylated PCR product of RORA promoter region (MSP) following treatment” value [1] was “absence of methylated product; also recorded: absence of methylation”, the “change in RORA expression level with treatment” value (RORA; [2]) was “no statistically significant increases” and the “fold-change in RORA transcript expression following treatment” value (RORA; [3]) was 1.8 fold. The “change in BCL-2 expression level with treatment” value (BCL-2; [2]) was “no statistically significant increases” and the “fold-change in BCL-2 transcript expression following treatment” value (BCL-2; [3]) was 1.5 fold.
